According to ChEMBL document CHEMBL1201862, “PubChem BioAssay data set” (2004):
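Tested at 5 concentrations; 48 h exposure; 96-well plates; endpoints linearly interpolated, else capped at highest concentration. GI50 is the concentration that inhibits growth by half.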 Activity calls are given as the source filed them. Rule as the data show it: active = GI50 up to about 1.1 µM and inactive = higher.

How the values were obtained:
Assay in all cases: growth of human tumour cells (NCI), 48 h
SNB-19 = tested on: SNB-19
UO-31 = tested on: UO-31
SF-268 = tested on: SF-268
A549 = tested on: A549
SR = tested on: SR
UACC-62 = tested on: UACC-62
DMS-273 = tested on: DMS-273
NCI-H460 = tested on: NCI-H460
TK-10 = tested on: TK-10
HOP-62 = tested on: HOP-62
COLO 205 = tested on: COLO 205
DMS-114 = tested on: DMS-114
A498 = tested on: A498
SNB-78 = tested on: SNB-78
RPMI-8226 = tested on: RPMI-8226
SF-539 = tested on: SF-539
UACC-257 = tested on: UACC-257
NCI-H226 = tested on: NCI-H226
SK-MEL-28 = tested on: SK-MEL-28
SK-OV-3 = tested on: SK-OV-3
OVCAR-4 = tested on: OVCAR-4
XF498 = tested on: XF498
U-251 = tested on: U-251
KM-20L2 = tested on: KM-20L2
CCRF-CEM = tested on: CCRF-CEM
786-0 = tested on: 786-0
SNB-75 = tested on: SNB-75
ACHN = tested on: ACHN
OVCAR-8 = tested on: OVCAR-8
Malme-3M = tested on: Malme-3M
M19-MEL = tested on: M19-MEL
RXF 393 = tested on: RXF 393
HOP-18 = tested on: HOP-18
SF-295 = tested on: SF-295
DLD-1 = tested on: DLD-1
HCT-15 = tested on: HCT-15
IGROV-1 = tested on: IGROV-1
SN12C = tested on: SN12C
M14 = tested on: M14
LXFL 529 = tested on: LXFL 529
SW-620 = tested on: SW-620
HL-60 = tested on: HL-60
MOLT-4 = tested on: MOLT-4
HOP-92 = tested on: HOP-92
NCI-H522 = tested on: NCI-H522
HT-29 = tested on: HT-29
NCI-H23 = tested on: NCI-H23
K562 = tested on: K562
HCC 2998 = tested on: HCC 2998
HCT-116 = tested on: HCT-116
LOX IMVI = tested on: LOX IMVI
KM12 = tested on: KM12
EKVX = tested on: EKVX
SK-MEL-2 = tested on: SK-MEL-2
CAKI-1 = tested on: CAKI-1
OVCAR-5 = tested on: OVCAR-5
OVCAR-3 = tested on: OVCAR-3
SK-MEL-5 = tested on: SK-MEL-5

Question: Which GI50 (SNB-19) does the source give for C=C(C)C1C/C=C(/C)CCCC2(CCC3=C(CC(C(=C)C)C/C=C(/C)CCC3)O2)C(=O)C1 (stereo unspecified) here?
Answer: > 100 µM (inactive)

Question: And the GI50 (UO-31)?
Answer: > 100 µM (inactive)

Question: And the GI50 (SF-268)?
Answer: > 100 µM (inactive)

Question: And the GI50 (A549)?
Answer: > 100 µM (inactive)

Question: And the GI50 (SR)?
Answer: > 100 µM (inactive)

Question: And the GI50 (UACC-62)?
Answer: > 100 µM (inactive)

Question: And the GI50 (DMS-273)?
Answer: > 100 µM (inactive)

Question: And the GI50 (NCI-H460)?
Answer: > 100 µM (inactive)

Question: What about the GI50 (TK-10) of the same compound?
Answer: > 100 µM (inactive)

Question: And the GI50 (HOP-62)?
Answer: > 100 µM (inactive)

Question: What about the GI50 (COLO 205) of the same compound?
Answer: > 100 µM (inactive)

Question: And the GI50 (DMS-114)?
Answer: > 100 µM (inactive)

Question: And the GI50 (A498)?
Answer: > 100 µM (inactive)

Question: What about the GI50 (SNB-78) of the same compound?
Answer: > 100 µM (inactive)

Question: And the GI50 (RPMI-8226)?
Answer: > 100 µM (inactive)

Question: And the GI50 (SF-539)?
Answer: > 100 µM (inactive)

Question: What about the GI50 (UACC-257) of the same compound?
Answer: > 100 µM (inactive)

Question: And the GI50 (NCI-H226)?
Answer: > 100 µM (inactive)

Question: And the GI50 (SK-MEL-28)?
Answer: > 100 µM (inactive)

Question: And the GI50 (SK-OV-3)?
Answer: > 100 µM (inactive)

Question: And the GI50 (OVCAR-4)?
Answer: > 100 µM (inactive)

Question: And the GI50 (XF498)?
Answer: > 100 µM (inactive)

Question: What about the GI50 (U-251) of the same compound?
Answer: > 100 µM (inactive)

Question: What about the GI50 (KM-20L2) of the same compound?
Answer: > 100 µM (inactive)

Question: And the GI50 (CCRF-CEM)?
Answer: > 100 µM (inactive)

Question: What about the GI50 (786-0) of the same compound?
Answer: > 100 µM (inactive)

Question: And the GI50 (SNB-75)?
Answer: > 100 µM (inactive)

Question: What about the GI50 (ACHN) of the same compound?
Answer: > 100 µM (inactive)

Question: And the GI50 (OVCAR-8)?
Answer: > 100 µM (inactive)

Question: What about the GI50 (Malme-3M) of the same compound?
Answer: > 100 µM (inactive)

Question: What about the GI50 (M19-MEL) of the same compound?
Answer: > 100 µM (inactive)

Question: What about the GI50 (RXF 393) of the same compound?
Answer: > 100 µM (inactive)

Question: What about the GI50 (HOP-18) of the same compound?
Answer: > 100 µM (inactive)

Question: And the GI50 (SF-295)?
Answer: > 100 µM (inactive)

Question: And the GI50 (DLD-1)?
Answer: > 100 µM (inactive)

Question: What about the GI50 (HCT-15) of the same compound?
Answer: > 100 µM

Question: And the GI50 (IGROV-1)?
Answer: > 100 µM (inactive)

Question: And the GI50 (SN12C)?
Answer: > 100 µM (inactive)

Question: And the GI50 (M14)?
Answer: > 100 µM (inactive)

Question: And the GI50 (LXFL 529)?
Answer: > 100 µM (inactive)

Question: What about the GI50 (SW-620) of the same compound?
Answer: > 100 µM (inactive)

Question: And the GI50 (HL-60)?
Answer: > 100 µM (inactive)

Question: What about the GI50 (MOLT-4) of the same compound?
Answer: > 100 µM (inactive)

Question: What about the GI50 (HOP-92) of the same compound?
Answer: > 100 µM (inactive)

Question: And the GI50 (NCI-H522)?
Answer: > 100 µM (inactive)

Question: What about the GI50 (HT-29) of the same compound?
Answer: > 100 µM (inactive)

Question: What about the GI50 (NCI-H23) of the same compound?
Answer: > 100 µM (inactive)

Question: And the GI50 (K562)?
Answer: > 100 µM (inactive)

Question: What about the GI50 (HCC 2998) of the same compound?
Answer: > 100 µM (inactive)

Question: And the GI50 (HCT-116)?
Answer: 54.7 µM (inactive)

Question: And the GI50 (LOX IMVI)?
Answer: > 100 µM (inactive)

Question: And the GI50 (KM12)?
Answer: > 100 µM (inactive)

Question: And the GI50 (EKVX)?
Answer: > 100 µM (inactive)

Question: And the GI50 (SK-MEL-2)?
Answer: > 100 µM (inactive)

Question: For CC1NOC(=O)C1/N=N/c1cccc(Cl)c1 (stereo unspecified), which GI50 (SNB-19) is on record?
Answer: 37.7 µM (inactive)

Question: And the GI50 (UO-31)?
Answer: 35.6 µM (inactive)

Question: And the GI50 (SF-268)?
Answer: 23.1 µM (inactive)

Question: What about the GI50 (A549) of the same compound?
Answer: 33.2 µM (inactive)

Question: And the GI50 (SR)?
Answer: 21.2 µM (inactive)

Question: And the GI50 (UACC-62)?
Answer: 34.6 µM (inactive)

Question: What about the GI50 (DMS-273) of the same compound?
Answer: 48.1 µM (inactive)

Question: What about the GI50 (NCI-H460) of the same compound?
Answer: 31.2 µM (inactive)

Question: What about the GI50 (TK-10) of the same compound?
Answer: 42.8 µM (inactive)

Question: What about the GI50 (HOP-62) of the same compound?
Answer: 51.3 µM (inactive)

Question: And the GI50 (COLO 205)?
Answer: 20.5 µM (inactive)

Question: What about the GI50 (DMS-114) of the same compound?
Answer: 22.4 µM (inactive)

Question: And the GI50 (A498)?
Answer: 17.3 µM (inactive)

Question: And the GI50 (SNB-78)?
Answer: 36.6 µM (inactive)

Question: What about the GI50 (SF-539) of the same compound?
Answer: 34.3 µM (inactive)

Question: What about the GI50 (CAKI-1) of the same compound?
Answer: 38.6 µM (inactive)

Question: And the GI50 (UACC-257)?
Answer: 29 µM (inactive)

Question: And the GI50 (OVCAR-5)?
Answer: 47.5 µM (inactive)

Question: What about the GI50 (NCI-H226) of the same compound?
Answer: 32.3 µM (inactive)

Question: What about the GI50 (OVCAR-3) of the same compound?
Answer: 22.5 µM (inactive)

Question: What about the GI50 (SK-MEL-28) of the same compound?
Answer: 43.9 µM (inactive)

Question: And the GI50 (SK-OV-3)?
Answer: 28.8 µM (inactive)

Question: And the GI50 (OVCAR-4)?
Answer: 32.9 µM (inactive)

Question: And the GI50 (XF498)?
Answer: 22.3 µM (inactive)

Question: What about the GI50 (U-251) of the same compound?
Answer: 25.2 µM (inactive)

Question: What about the GI50 (KM-20L2) of the same compound?
Answer: 35.6 µM (inactive)

Question: And the GI50 (CCRF-CEM)?
Answer: 21.4 µM (inactive)

Question: What about the GI50 (786-0) of the same compound?
Answer: 30.2 µM (inactive)

Question: What about the GI50 (SNB-75) of the same compound?
Answer: 36.1 µM (inactive)

Question: What about the GI50 (ACHN) of the same compound?
Answer: 40.9 µM (inactive)

Question: What about the GI50 (OVCAR-8) of the same compound?
Answer: 44.8 µM (inactive)

Question: And the GI50 (SK-MEL-5)?
Answer: 19.9 µM (inactive)

Question: What about the GI50 (Malme-3M) of the same compound?
Answer: 29.7 µM (inactive)

Question: And the GI50 (M19-MEL)?
Answer: 30.3 µM (inactive)

Question: What about the GI50 (RXF 393) of the same compound?
Answer: 22.8 µM (inactive)

Question: And the GI50 (HOP-18)?
Answer: 26.1 µM (inactive)

Question: What about the GI50 (SF-295) of the same compound?
Answer: 34 µM (inactive)

Question: What about the GI50 (DLD-1) of the same compound?
Answer: 34.6 µM (inactive)

Question: And the GI50 (HCT-15)?
Answer: 17.7 µM

Question: And the GI50 (IGROV-1)?
Answer: 40.8 µM (inactive)

Question: What about the GI50 (SN12C) of the same compound?
Answer: 21.7 µM (inactive)

Question: And the GI50 (M14)?
Answer: 62.2 µM (inactive)

Question: What about the GI50 (LXFL 529) of the same compound?
Answer: 27.9 µM (inactive)

Question: And the GI50 (SW-620)?
Answer: 10 µM (inactive)

Question: And the GI50 (HL-60)?
Answer: 18.4 µM (inactive)

Question: And the GI50 (MOLT-4)?
Answer: 24.5 µM (inactive)

Question: And the GI50 (HOP-92)?
Answer: 26.4 µM (inactive)

Question: And the GI50 (NCI-H522)?
Answer: 23.5 µM (inactive)

Question: What about the GI50 (HT-29) of the same compound?
Answer: 27.4 µM (inactive)

Question: What about the GI50 (NCI-H23) of the same compound?
Answer: 99.5 µM (inactive)

Question: What about the GI50 (K562) of the same compound?
Answer: 25.6 µM (inactive)

Question: And the GI50 (HCC 2998)?
Answer: > 100 µM (inactive)

Question: And the GI50 (HCT-116)?
Answer: 31.7 µM (inactive)

Question: What about the GI50 (LOX IMVI) of the same compound?
Answer: 28.8 µM (inactive)

Question: What about the GI50 (KM12) of the same compound?
Answer: 40.7 µM (inactive)

Question: And the GI50 (EKVX)?
Answer: 37.5 µM (inactive)

Question: And the GI50 (SK-MEL-2)?
Answer: 16.5 µM (inactive)
